Target: T1, MAP4K1 (HPK1) (Homo sapiens, UniProt Q92918)
T1 construct: purchased Invitrogen
Assay: Inhibition of MAP4K1 biochemical enzymatic activity (EZReader 2 electrophoretic mobility shift)
Conditions: HPK1 (Invitrogen), S6K2tide 1.5 μM, 120 min; ATP 26 μM or 1000 μM (not given)
Excerpt: MAP4K1 (HPK1) and relevant off-target enzymatic activity was monitored using the Perkin Elmer electrophoretic mobility shift technology platform—the EZReader 2. […] Within the linear, steady-state phase of the kinase enzymatic reaction, the mixed pool of phosphorylated (product) and non-phosphorylated (substrate) peptides was passed through the microfluidic system of the PerkinElmer EZ Reader 2, under an applied electric potential difference. The presence of the phosphate group on the product peptide provided a difference in mass and charge between that of the substrate peptide, resulting in a separation of the substrate and product pools in the sample (Perrin et al. 2010). As the product and substrate peptide mixture passes the lasers within the instrument, these pools are detected (λex=488 nm, λem=568 nm) and resolved as separate peaks. The ratio between these peaks reflects the activity of the compound at that concentration, in that well, under those conditions.
Inhibitors were dissolved in 100% DMSO at a stock concentration of 10 mM. A 100×, 10-point, 4-fold serial dilution of each inhibitor was created in 100% DMSO either manually or on a Hamilton STAR liquid handler, starting at a relevant concentration, usually 1 mM. A volume of 0.130 μL of each concentration was transferred to the relevant wells of a 384-well plate (Greiner 781 201) in duplicate using a TTPLabtech Mosquito nano-litre dispenser. Using a Multidrop Combi, the remaining constituents of the kinase reaction were added to the 130 nL of dosed compound as follows (see table below for final reaction details):
Enzyme activity assays at the ^APPKM for ATP or 1 mM ATP: In each well of a 384-well plate, 0.1-15 nM of untreated enzyme was incubated in a total of 13 μL of buffer (100 mM HEPES pH 7.5, 0.015% Brij 35, 10 mM MgCl2, 1 mM DTT) with 1.5 μM fluorescent peptid and 20-1000 μM ATP, at 25° C., for 60-180 minutes in the presence or absence of a dosed concentration series of compound (1% DMSO final concentration). The kinase reactions were stopped by the addition of 70 μl of Stop buffer (100 mM HEPES pH 7.5, 0.015% Brij 35, 35 mM EDTA and 0.2% of Coating Reagent 3 (Caliper Lifesciences)). The plates were read on a Caliper EZReader 2 as described above.

T1 sequence (Q92918 whole entry): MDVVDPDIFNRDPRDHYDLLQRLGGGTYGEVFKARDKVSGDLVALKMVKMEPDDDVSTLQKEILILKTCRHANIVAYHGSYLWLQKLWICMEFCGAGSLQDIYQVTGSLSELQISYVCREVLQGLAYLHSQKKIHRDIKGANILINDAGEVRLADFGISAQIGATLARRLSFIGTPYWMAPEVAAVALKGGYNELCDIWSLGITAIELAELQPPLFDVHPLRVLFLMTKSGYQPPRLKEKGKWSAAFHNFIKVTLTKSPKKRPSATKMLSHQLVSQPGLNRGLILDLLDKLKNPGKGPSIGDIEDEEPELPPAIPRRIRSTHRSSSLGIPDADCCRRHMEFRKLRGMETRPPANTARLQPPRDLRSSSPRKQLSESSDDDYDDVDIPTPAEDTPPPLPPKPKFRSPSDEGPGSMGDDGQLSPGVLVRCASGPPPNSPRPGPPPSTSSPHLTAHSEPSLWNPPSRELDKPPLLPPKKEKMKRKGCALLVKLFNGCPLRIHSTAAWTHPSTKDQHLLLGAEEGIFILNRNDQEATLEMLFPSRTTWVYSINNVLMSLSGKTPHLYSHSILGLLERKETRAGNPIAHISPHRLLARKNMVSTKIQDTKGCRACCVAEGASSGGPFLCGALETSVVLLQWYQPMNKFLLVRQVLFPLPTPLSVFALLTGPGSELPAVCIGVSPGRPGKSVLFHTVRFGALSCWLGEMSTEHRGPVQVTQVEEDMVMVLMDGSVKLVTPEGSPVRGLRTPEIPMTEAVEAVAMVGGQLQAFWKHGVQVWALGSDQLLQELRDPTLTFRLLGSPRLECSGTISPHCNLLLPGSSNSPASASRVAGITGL

Row | Structure (SMILES) | IC50 [nM]
1 | C[C@@H]1OC(=O)c2ccc(Nc3cc4c(C(C)(C)N)cnc(O[C@@H](C)C[C@@H]5CCCS5(=O)=O)c4cn3)nc2[C@H]1C (single isomer, unassigned) [Compound 157] | 1.57
2 | CC[C@@](C)(N)c1cnc(O[C@@H](C)CC(C)(C)S(C)(=O)=O)c2cnc(Nc3ccc4c(n3)[C@@H](C)[C@H](C)OC4=O)cc12 (single isomer, unassigned) [Compound 185] | 0.22
3 | CC[C@@](C)(N)c1cnc(O[C@H](C)CC(C)(C)[S@@](C)(=N)=O)c2cnc(Nc3ccc4c(n3)C(C)(C)[C@@H](C)OC4=O)cc12 (single isomer, unassigned) [Compound 188] | 0.96
4 | CC[C@@](C)(N)c1cnc(OCCCS(C)(=O)=O)c2cnc(Nc3ccc4c(n3)[C@@H](C)[C@H](C)OC4=O)cc12 [Compound 20] | 0.13
5 | C[C@@H]1OC(=O)c2ccc(Nc3cc4c(C(C)(C)N)cnc(O[C@@H](C)C[C@@H]5CCCS5(=O)=O)c4cn3)nc2[C@H]1C (single isomer, unassigned) [Compound 154] | 0.62
6 | C[C@@H]1OC(=O)c2ccc(Nc3cc4c(C(C)(C)N)cnc(O[C@@H](CCS(C)(=O)=O)C(F)(F)F)c4cn3)nc2[C@H]1C (single isomer, unassigned) [Compound 174] | 5.35
7 | CC[C@@](C)(N)c1cnc(O[C@H](C)CC(C)(C)[S@@](C)(=N)=O)c2cnc(Nc3ccc4c(n3)C(C)(C)[C@@H](C)OC4=O)cc12 (single isomer, unassigned) [Compound 190] | 5.1
8 | CC[C@@](C)(N)c1cnc(O[C@H](C)CCS(C)(=O)=O)c2cnc(Nc3ccc4c(n3)CC(C)(C)OC4=O)cc12 [Compound 49] | 0.31
9 | COC[C@@](C)(N)c1cnc(O[C@H](C)C[C@@H](C)S(C)(=O)=O)c2cnc(Nc3ccc4c(n3)[C@@H](C)[C@H](C)OC4=O)cc12 [Compound 134] | 0.48
10 | CC[C@@](C)(N)c1cnc(O[C@H](C)CC(C)(C)[S@@](C)(=N)=O)c2cnc(Nc3ccc4c(n3)C(C)(C)[C@@H](C)OC4=O)cc12 (single isomer, unassigned) [Compound 187] | 2.2
11 | CCC[C@@](C)(N)c1cnc(O[C@H](C)C[C@@H](C)S(C)(=O)=O)c2cnc(Nc3ccc4c(n3)CC(C)(C)OC4=O)cc12 (single isomer, unassigned) [Compound 124] | 0.26
12 | CC[C@@](C)(N)c1cnc(OCCCS(C)(=O)=O)c2cnc(Nc3ccc4c(n3)CC(C)(C)OC4=O)cc12 [Compound 23] | 0.3
13 | CC[C@@](C)(N)c1cnc(O[C@H](C)CCS(C)(=O)=O)c2cnc(Nc3ccc4c(n3)C(C)(C)[C@@H](C)OC4=O)cc12 [Compound 178] | 0.55
14 | COC[C@@](C)(N)c1cnc(O[C@H](C)C[C@@H](C)S(C)(=O)=O)c2cnc(Nc3ccc4c(n3)C3(CC3)C(C)(C)OC4=O)cc12 [Compound 164] | 1.48
15 | CC[C@@](C)(N)c1cnc(O[C@H](C)CC[S@@+](C)[O-])c2cnc(Nc3ccc4c(n3)[C@@H](C)[C@H](C)OC4=O)cc12 (single isomer, unassigned) [Compound 166] | 0.2
16 | CC[C@@](C)(N)c1cnc(O[C@@H](C)CCS(C)(=O)=O)c2cnc(Nc3ccc4c(n3)C3(CC3)C(C)(C)OC4=O)cc12 [Compound 146] | 1.41
17 | CC[C@@](C)(N)c1cnc(O[C@@H](C)CC(C)(C)S(C)(=O)=O)c2cnc(Nc3ccc4c(n3)C(C)(C)[C@H](C)OC4=O)cc12 (single isomer, unassigned) [Compound 191] | 3.67
18 | CC[C@@](C)(N)c1cnc(OCCCS(C)(=O)=O)c2cnc(Nc3ccc4c(n3)[C@H](C)[C@H](C)OC4=O)cc12 (single isomer, unassigned) [Compound 21] | 0.18

Continued, values first:

Row | IC50 [nM] | Structure (SMILES)
19 | 0.2 | C[C@H](CCS(C)(=O)=O)Oc1ccc(C(C)(C)N)c2cc(Nc3ccc4c(n3)[C@@H](C)C(C)(C)OC4=O)ncc12 (single isomer, unassigned) [Compound 45]
20 | 1.61 | C[C@H](C[C@H]1CCCS1(=O)=O)Oc1ncc(C(C)(C)N)c2cc(Nc3ccc4c(n3)[C@@H](C)C(C)(C)OC4=O)ncc12 (single isomer, unassigned) [Compound 160]
21 | 1.85 | CC(C)(N)c1cnc(O[C@H]2C[C@@H](S(C)(=O)=O)C2)c2cnc(Nc3ccc4c(n3)C(C)(C)OC4=O)cc12 [Compound 4]
22 | 0.26 | C[C@@H]1OC(=O)c2ccc(Nc3cc4c(C(C)(C)N)cnc(OC5CS(=O)(=O)C5)c4cn3)nc2[C@H]1C [Compound 1]
23 | 0.48 | C[C@@H]1OC(=O)c2ccc(Nc3cc4c(C(C)(C)N)cnc(O[C@@H]5CC[C@@H](S(C)(=O)=O)C5)c4cn3)nc2[C@H]1C (single isomer, unassigned) [Compound 35]
24 | 0.15 | CC[C@@](C)(N)c1cnc(O[C@H]2C[C@@H](S(C)(=O)=O)C2)c2cnc(Nc3ccc4c(n3)C3(CC3)C(C)(C)OC4=O)cc12 [Compound 100]
25 | 0.15 | C[C@H]1OC(=O)c2ccc(Nc3cc4c(C(C)(C)N)cnc(O[C@H]5C[C@@H](S(C)(=O)=O)C5)c4cn3)nc2C12CC2 (single isomer, unassigned) [Compound 24]
26 | 0.09 | CC(C)S(=O)(=O)[C@H]1C[C@@H](Oc2ncc(C(C)(C)N)c3cc(Nc4ccc5c(n4)[C@@H](C)C(C)(C)OC5=O)ncc23)C1 [Compound 116]
27 | 0.82 | C[C@H](CCS(C)(=O)=O)Oc1ncc(C(C)(C)N)c2cc(Nc3ccc4c(n3)[C@@H](C)C(C)(C)OC4=O)ncc12 (single isomer, unassigned) [Compound 54]
28 | 0.15 | C[C@@H]1c2nc(Nc3cc4c(C(C)(C)N)cnc(OCCCS(C)(=O)=O)c4cn3)ccc2C(=O)OC1(C)C [Compound 17]
29 | 0.17 | CC[C@@](C)(N)c1cnc(O[C@H]2C[C@@H](CS(C)(=O)=O)C2)c2cnc(Nc3ccc4c(n3)[C@@H](C)C(C)(C)OC4=O)cc12 [Compound 114]
30 | 0.6 | C[C@@H]1c2nc(Nc3cc4c(C(C)(C)N)cnc(OCCC[S@@](C)(=N)=O)c4cn3)ccc2C(=O)OC1(C)C (single isomer, unassigned) [Compound 169]
31 | 1.77 | C[C@@H]1COC(=O)c2ccc(Nc3cc4c(C(C)(C)N)cnc(O[C@H]5C[C@@H](S(C)(=O)=O)C5)c4cn3)nc21 (single isomer, unassigned) [Compound 5]
32 | 0.21 | CC[C@@](C)(N)c1cnc(O[C@H]2C[C@@H](S(C)(=O)=O)C2)c2cnc(Nc3ccc4c(n3)C(C)(C)COC4=O)cc12 [Compound 33]
33 | 0.54 | C[C@@H]1c2nc(Nc3cc4c(C(C)(C)N)cnc(OC[C@H]5CCS(=O)(=O)C5)c4cn3)ccc2C(=O)OC1(C)C (single isomer, unassigned) [Compound 36]
34 | 0.12 | C[C@@H]1c2nc(Nc3cc4c(C(C)(C)N)cnc(OC5(C)CS(=O)(=O)C5)c4cn3)ccc2C(=O)OC1(C)C [Compound 10]
35 | 0.48 | CCS(=O)(=O)[C@H]1C[C@@H](Oc2ncc([C@H](N)C3CC3)c3cc(Nc4ccc5c(n4)[C@@H](C)C(C)(C)OC5=O)ncc23)C1 (single isomer, unassigned) [Compound 101]
36 | 0.35 | C[C@@H]1OC(=O)c2ccc(Nc3cc4c(C(C)(C)N)cnc(O[C@H]5C[C@H](S(=O)(=O)N(C)C)C5)c4cn3)nc2[C@H]1C [Compound 82]
37 | 0.42 | C[C@H](C[C@H]1CCCS1(=O)=O)Oc1ncc(C(C)(C)N)c2cc(Nc3ccc4c(n3)[C@@H](C)C(C)(C)OC4=O)ncc12 (single isomer, unassigned) [Compound 159]
38 | 2.38 | C[C@@H]1OC(=O)c2ccc(Nc3cc4c(C(C)(C)N)cnc(O[C@@H](C)C[C@@H]5CCCS5(=O)=O)c4cn3)nc2[C@H]1C (single isomer, unassigned) [Compound 156]
39 | 1.94 | CCS(=O)(=O)C[C@H](C)[C@@H](C)Oc1ncc(C(C)(C)N)c2cc(Nc3ccc4c(n3)[C@@H](C)C(C)(C)OC4=O)ncc12 (single isomer, unassigned) [Compound 131]
40 | 0.92 | CC[C@@](C)(N)c1cnc(O[C@H]2C[C@@H](S(C)(=O)=O)C2)c2cnc(Nc3ccc4c(n3)[C@H](C)COC4=O)cc12 (single isomer, unassigned) [Compound 9]
41 | 1.86 | C[C@@H]1c2nc(Nc3cc4c(C(C)(C)N)cnc(O[C@@H](CCS(C)(=O)=O)C(F)(F)F)c4cn3)ccc2C(=O)OC1(C)C (single isomer, unassigned) [Compound 172]
42 | 0.51 | C[C@H]1[C@H](Oc2ncc(C(C)(C)N)c3cc(Nc4ccc5c(n4)[C@@H](C)C(C)(C)OC5=O)ncc23)C[C@@H]1S(C)(=O)=O (single isomer, unassigned) [Compound 68]
43 | 1.53 | C[C@@H]1COC(=O)c2ccc(Nc3cc4c(C(C)(C)N)cnc(O[C@H]5C[C@@H](S(=O)(=O)C6CC6)C5)c4cn3)nc21 (single isomer, unassigned) [Compound 25]
